Source: ChEMBL document CHEMBL1130436, “Synthesis and opioid activity of conformationally constrained dynorphin A analogues. 2. Conformational constraint in the "address" sequence” (J Med Chem, 1997)

Assays:
Cavia porcellus = species: Cavia porcellus; experiment: Opioid activity in guinea pig ileum; format: functional
[1] = molecular target: Kappa-type opioid receptor (Cavia porcellus, UniProt P41144); experiment: Binding affinity of compound was measured on Opioid receptor kappa 1 by competitive inhibition of radioligand [3H]diprenorphine using cloned receptors transiently expressed on COS-7 (monkey kidney) cells; format: cell-based
Mu-type opioid receptor = Mu-type opioid receptor (Cavia porcellus, UniProt P97266); experiment: Binding affinity of compound was measured on Opioid receptor mu 1 by competitive inhibition of radioligand [3H]DAMGO using cloned receptors transiently expressed on COS-7 (monkey kidney) cells; format: cell-based
[2] = molecular target: Delta-type opioid receptor (Homo sapiens, UniProt P41143); experiment: Binding affinity of compound was measured on Opioid receptor delta 1 by competitive inhibition of radioligand [3H]DPDPE using cloned receptors transiently expressed on COS-7 (monkey kidney) cells; format: cell-based

SMILES: CC[C@H](C)[C@H](NC(=O)[C@H](CCCNC(=N)N)NC(=O)[C@@H]1CCNC(=O)C[C@@H](NC(=O)CNC(=O)[C@@H](N)Cc2ccc(O)cc2)C(=O)N[C@@H](Cc2ccccc2)C(=O)N[C@@H](CC(C)C)C(=O)N1)C(=O)N[C@@H](CCCNC(=N)N)C(=O)N1CCC[C@H]1C(=O)N[C@@H](CCCCN)C(=O)N[C@@H](CC(C)C)C(=O)N[C@@H](CCCCN)C(N)=O
- IC50 (Cavia porcellus): 880 nM
- Ki [1]: 270 nM
- Ki (Mu-type opioid receptor): 210 nM
- Ki [2]: 1000 nM
